In US11173151B2, “Substituted triazole derivatives and uses thereof” (BAYER AKTIENGESELLSCHAFT, priority 2017, dated 2021):
Where a name gives a salt, the structure may show the parent alone.

Legend:
[1] = target: T1, human V1a receptor (Homo sapiens, UniProt P37288); assay: Cellular in vitro assay for determining vasopressin receptor activity, V1a receptor cell line (CHO, aequorin luminescence); type: cell-based; conditions: for IC50: CHO cell line transfected with human V1a receptor, [Arg]-vasopressin at EC50 concentration, read-out: IC50 hV1a; for ratio IC50 hV2/hV1a: selectivity ratio IC50 hV2 / IC50 hV1a
T1 construct: expressed in transfected cells; host or cells: CHO K1 (ATCC), also stably transfected with a modified aequorin
T1 sequence (P37288 whole entry): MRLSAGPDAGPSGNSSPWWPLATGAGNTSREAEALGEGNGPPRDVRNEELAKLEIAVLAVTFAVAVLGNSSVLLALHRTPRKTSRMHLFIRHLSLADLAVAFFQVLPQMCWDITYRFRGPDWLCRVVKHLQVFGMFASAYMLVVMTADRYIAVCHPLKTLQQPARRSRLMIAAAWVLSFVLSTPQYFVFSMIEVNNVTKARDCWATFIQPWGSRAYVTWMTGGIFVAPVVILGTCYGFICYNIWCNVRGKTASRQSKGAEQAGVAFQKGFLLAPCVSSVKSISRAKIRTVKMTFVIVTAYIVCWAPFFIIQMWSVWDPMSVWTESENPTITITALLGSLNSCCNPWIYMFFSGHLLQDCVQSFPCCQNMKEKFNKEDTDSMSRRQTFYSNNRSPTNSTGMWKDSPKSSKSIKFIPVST
Outline: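 Luminescence from reconstituted aequorin, reporting intracellular calcium release, was measured immediately after adding [Arg]-vasopressin at EC50 concentration to CHO K1 cells pretreated 10 minutes with graded compound concentrations. Inhibition gave IC50 values.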

[2] = target: T2, human V2 receptor (Homo sapiens, UniProt P30518); assay: Cellular in vitro assay for determining vasopressin receptor activity, V2 receptor cell line (CHO, CRE-luciferase); type: cell-based; conditions: CHO cell line transfected with human V2 receptor; [Arg8]-vasopressin at EC50 concentration; read-out: IC50 hV2
T2 construct: expressed in transfected cells; host or cells: CHO K1 (ATCC) expressing firefly luciferase under a CRE-responsive promoter
T2 sequence (P30518 whole entry): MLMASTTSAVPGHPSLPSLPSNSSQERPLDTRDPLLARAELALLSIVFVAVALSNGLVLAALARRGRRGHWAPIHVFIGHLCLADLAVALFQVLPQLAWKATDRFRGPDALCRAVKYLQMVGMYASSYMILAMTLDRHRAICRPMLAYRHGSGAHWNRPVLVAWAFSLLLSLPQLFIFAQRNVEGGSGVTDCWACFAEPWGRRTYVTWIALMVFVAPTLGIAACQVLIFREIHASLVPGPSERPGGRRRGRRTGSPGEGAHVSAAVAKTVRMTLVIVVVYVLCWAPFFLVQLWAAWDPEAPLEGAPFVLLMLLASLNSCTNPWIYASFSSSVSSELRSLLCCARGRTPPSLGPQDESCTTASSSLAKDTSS

| SMILES | IC50 [1] | ratio IC50 hV2/hV1a [1] | IC50 [2] |
| --- | --- | --- | --- |
| O=C(c1ncccc1-n1cnc(Cn2nc(-c3ccc(Cl)cc3)n(C[C@H](O)C(F)(F)F)c2=O)n1)N1CCS(=O)(=O)CC1 [Example 452, 5-(4-Chlorophenyl)-2-[(1-{2-[(1,1-dioxidothiomorpholin-4-yl)carbonyl]pyridin-3-yl}-1H-1,2,4-triazol-3-yl)methyl]-4-[(2S)-3,3,3-trifluoro-2-hydroxypropyl]-2,4-dihydro-3H-1,2,4-triazol-3-one] | 0.265 µM | 22.3 | 5.9 µM |
| CN(CC1CC1)C(=O)c1ncccc1-n1cnc(Cn2nc(-c3ccc(Cl)cc3)n(C[C@H](O)C(F)(F)F)c2=O)n1 [Example 454, 3-[3-({3-(4-Chlorophenyl)-5-oxo-4-[(2S)-3,3,3-trifluoro-2-hydroxypropyl]-4,5-dihydro-1H-1,2,4-triazol-1-yl}methyl)-1H-1,2,4-triazol-1-yl]-N-(cyclopropylmethyl)-N-methylpyridine-2-carboxamide] | 0.012 µM | 337.5 | 4.05 µM |
| CC1(NC(=O)c2ncccc2-n2cnc(Cn3nc(-c4ccc(Cl)cc4)n(C[C@H](O)C(F)(F)F)c3=O)n2)CC1 [Example 455, 3-[3-({3-(4-Chlorophenyl)-5-oxo-4-[(2S)-3,3,3-trifluoro-2-hydroxypropyl]-4,5-dihydro-1H-1,2,4-triazol-1-yl}methyl)-1H-1,2,4-triazol-1-yl]-N-(1-methylcyclopropyl)pyridine-2-carboxamide] | 0.0044 µM | 272.7 | 1.2 µM |
| O=C(NCC(F)(F)F)c1ncccc1-n1cnc(Cn2nc(-c3ccc(Cl)cc3)n(C[C@@H](O)C(F)(F)F)c2=O)n1 [Example 457, 3-[3-({3-(4-Chlorophenyl)-5-oxo-4-[(2R)-3,3,3-trifluoro-2-hydroxypropyl]-4,5-dihydro-1H-1,2,4-triazol-1-yl}methyl)-1H-1,2,4-triazol-1-yl]-N-(2,2,2-trifluoroethyl)pyridine-2-carboxamide] | 0.21 µM | 25.2 | 5.3 µM |
| O=C(NC1CC1)c1ncccc1-n1cnc(Cn2nc(-c3ccc(Cl)cc3)n(C[C@@H](O)C(F)(F)F)c2=O)n1 [Example 458, 3-[3-({3-(4-Chlorophenyl)-5-oxo-4-[(2R)-3,3,3-trifluoro-2-hydroxypropyl]-4,5-dihydro-1H-1,2,4-triazol-1-yl}methyl)-1H-1,2,4-triazol-1-yl]-N-cyclopropylpyridine-2-carboxamide] | 0.1 µM | 60.5 | 6.05 µM |
| O=C(NCC1CC1)c1ncccc1-n1cnc(Cn2nc(-c3ccc(Cl)cc3)n(C[C@@H](O)C(F)(F)F)c2=O)n1 [Example 459, 3-[3-({3-(4-Chlorophenyl)-5-oxo-4-[(2R)-3,3,3-trifluoro-2-hydroxypropyl]-4,5-dihydro-1H-1,2,4-triazol-1-yl}methyl)-1H-1,2,4-triazol-1-yl]-N-(cyclopropylmethyl)pyridine-2-carboxamide] | 0.21 µM | 21.0 | 4.4 µM |
| O=C(NC1CC1(F)F)c1ncccc1-n1cnc(Cn2nc(-c3ccc(Cl)cc3)n(C[C@@H](O)C(F)(F)F)c2=O)n1 (stereo partly drawn) [Example 460, 3-[3-({3-(4-Chlorophenyl)-5-oxo-4-[(2R)-3,3,3-trifluoro-2-hydroxypropyl]-4,5-dihydro-1H-1,2,4-triazol-1-yl}methyl)-1H-1,2,4-triazol-1-yl]-N-[2,2-difluorocyclopropyl]pyridine-2-carboxamide] | 0.13 µM | 30.4 | 3.95 µM |
| NC(=O)[C@@H]1CC(F)(F)CN1C(=O)c1ncccc1-n1cnc(Cn2nc(-c3ccc(Cl)cc3)n(C[C@@H](O)C(F)(F)F)c2=O)n1 [Example 461, 1-({3-[3-({3-(4-Chlorophenyl)-5-oxo-4-[(2R)-3,3,3-trifluoro-2-hydroxypropyl]-4,5-dihydro-1H-1,2,4-triazol-1-yl}methyl)-1H-1,2,4-triazol-1-yl]pyridin-2-yl}carbonyl)-4,4-difluoro-L-prolinamide] | 1.1 µM | 20.0 | 22 µM |
| O=C(NC1CC1F)c1ncccc1-n1cnc(Cn2nc(-c3ccc(Cl)cc3)n(C[C@@H](O)C(F)(F)F)c2=O)n1 (stereo partly drawn) [Example 462, 3-[3-({3-(4-Chlorophenyl)-5-oxo-4-[(2R)-3,3,3-trifluoro-2-hydroxypropyl]-4,5-dihydro-1H-1,2,4-triazol-1-yl}methyl)-1H-1,2,4-triazol-1-yl]-N-[2-fluorocyclopropyl]pyridine-2-carboxamide] | 0.097 µM | 61.3 | 5.95 µM |
| O=C(NC1CC(F)(F)C1)c1ncccc1-n1cnc(Cn2nc(-c3ccc(Cl)cc3)n(C[C@@H](O)C(F)(F)F)c2=O)n1 [Example 465, 3-[3-({3-(4-Chlorophenyl)-5-oxo-4-[(2R)-3,3,3-trifluoro-2-hydroxypropyl]-4,5-dihydro-1H-1,2,4-triazol-1-yl}methyl)-1H-1,2,4-triazol-1-yl]-N-(3,3-difluorocyclobutyl)pyridine-2-carboxamide] | 0.17 µM | 21.2 | 3.6 µM |
| O=C(c1ncccc1-n1cnc(Cn2nc(-c3ccc(Cl)cc3)n(C[C@@H](O)C(F)(F)F)c2=O)n1)N1CCC(O)(C(F)(F)F)C1 (stereo partly drawn) [Example 468, 5-(4-Chlorophenyl)-2-{[1-(2-{[3-hydroxy-3-(trifluoromethyl)pyrrolidin-1-yl]carbonyl}pyridin-3-yl)-1H-1,2,4-triazol-3-yl]methyl}-4-[(2R)-3,3,3-trifluoro-2-hydroxypropyl]-2,4-dihydro-3H-1,2,4-triazol-3-one] | 0.42 µM | 76.2 | 32 µM |
| O=C(c1ncccc1-n1cnc(Cn2nc(-c3ccc(Cl)cc3)n(C[C@@H](O)C(F)(F)F)c2=O)n1)N1CCOC(C(F)(F)F)C1 (stereo partly drawn) [Example 470, 5-(4-Chlorophenyl)-4-[(2R)-3,3,3-trifluoro-2-hydroxypropyl]-2-{[1-(2-{[2-(trifluoromethyl)morpholin-4-yl]carbonyl}pyridin-3-yl)-1H-1,2,4-triazol-3-yl]methyl}-2,4-dihydro-3H-1,2,4-triazol-3-one] | 0.75 µM | 42.7 | 32 µM |
| O=C(NC1(C(F)(F)F)CC1)c1ncccc1-n1cnc(Cn2nc(-c3ccc(Cl)cc3)n(C[C@@H](O)C(F)(F)F)c2=O)n1 [Example 473, 3-[3-({3-(4-Chlorophenyl)-5-oxo-4-[(2R)-3,3,3-trifluoro-2-hydroxypropyl]-4,5-dihydro-1H-1,2,4-triazol-1-yl}methyl)-1H-1,2,4-triazol-1-yl]-N-[1-(trifluoromethyl)cyclopropyl]pyridine-2-carboxamide] | 0.092 µM | 19.6 | 1.8 µM |

Next, values leading:

| IC50 [1] | ratio IC50 hV2/hV1a [1] | IC50 [2] | SMILES |
| --- | --- | --- | --- |
| 0.175 µM | 182.9 | 32 µM | CC1(C)CNCCN1C(=O)c1ncccc1-n1cnc(Cn2nc(-c3ccc(Cl)cc3)n(C[C@H](O)C(F)(F)F)c2=O)n1 [Example 453, 5-(4-Chlorophenyl)-2-[(1-{2-[(2,2-dimethylpiperazin-1-yl)carbonyl]pyridin-3-yl}-1H-1,2,4-triazol-3-yl)methyl]-4-[(2S)-3,3,3-trifluoro-2-hydroxypropyl]-2,4-dihydro-3H-1,2,4-triazol-3-one-Hydrochloric Acid Salt] |
| 0.235 µM | 136.2 | 32 µM | O=C(c1ncccc1-n1cnc(Cn2nc(-c3ccc(Cl)cc3)n(C[C@@H](O)C(F)(F)F)c2=O)n1)N1CCC(F)(F)C1 [Example 463, 5-(4-Chlorophenyl)-2-[(1-{2-[(3,3-difluoropyrrolidin-1-yl)carbonyl]pyridin-3-yl}-1H-1,2,4-triazol-3-yl)methyl]-4-[(2R)-3,3,3-trifluoro-2-hydroxypropyl]-2,4-dihydro-3H-1,2,4-triazol-3-one] |
| 0.06 µM | 533.3 | 32 µM | CC1(C)CN(C(=O)c2ncccc2-n2cnc(Cn3nc(-c4ccc(Cl)cc4)n(C[C@@H](O)C(F)(F)F)c3=O)n2)CCO1 [Example 464, 5-(4-Chlorophenyl)-2-[(1-{2-[(2,2-dimethylmorpholin-4-yl)carbonyl]pyridin-3-yl}-1H-1,2,4-triazol-3-yl)methyl]-4-[(2R)-3,3,3-trifluoro-2-hydroxypropyl]-2,4-dihydro-3H-1,2,4-triazol-3-one] |
| 0.71 µM | 93.0 | 66 µM | CC1CN(C(=O)c2ncccc2-n2cnc(Cn3nc(-c4ccc(Cl)cc4)n(C[C@@H](O)C(F)(F)F)c3=O)n2)CCO1 (stereo partly drawn) [Example 466, 5-(4-Chlorophenyl)-2-{[1-(2-{[2-methylmorpholin-4-yl]carbonyl}pyridin-3-yl)-1H-1,2,4-triazol-3-yl]methyl}-4-[(2R)-3,3,3-trifluoro-2-hydroxypropyl]-2,4-dihydro-3H-1,2,4-triazol-3-one] |
| 0.15 µM | 139.3 | 20.9 µM | O=C(c1ncccc1-n1cnc(Cn2nc(-c3ccc(Cl)cc3)n(C[C@@H](O)C(F)(F)F)c2=O)n1)N1CCCCC1 [Example 471, 5-(4-chlorophenyl)-2-({1-[2-(piperidin-1-ylcarbonyl)pyridin-3-yl]-1H-1,2,4-triazol-3-yl}methyl)-4-[(2R)-3,3,3-trifluoro-2-hydroxypropyl]-2,4-dihydro-3H-1,2,4-triazol-3-one] |
| 0.32 µM | 206.3 | 66 µM | O=C(c1ncccc1-n1cnc(Cn2nc(-c3ccc(Cl)cc3)n(C[C@@H](O)C(F)(F)F)c2=O)n1)N1CCOCC1 [Example 472, 5-(4-Chlorophenyl)-2-({1-[2-(morpholin-4-ylcarbonyl)pyridin-3-yl]-1H-1,2,4-triazol-3-yl}methyl)-4-[(2R)-3,3,3-trifluoro-2-hydroxypropyl]-2,4-dihydro-3H-1,2,4-triazol-3-one] |
